Measurements from publication PMC3551614 (Journal of the American Chemical Society, 2012).
Numbered stars: 1 amine (or outer) side, 2 acyl side, 3 side chain; on linkers, the order of the positions; unused ones are H or OH. Bridge positions count the residues as written; N and C are the ends. Square brackets hold non-standard residues; d marks the D form. Peptide text beside a SMILES is read from it. * marks the point of attachment. 5FAM = O=C1OC2(c3ccc(O)cc3Oc3cc(O)ccc32)c2ccc(C(=O)*)cc21; X1 = O=C([C@H]1CNC[C@@H]1N[*:1])[*:2]; β3hE = N[C@@H](CCC(=O)O)CC(=O)O; β3hN = NC(=O)C[C@H](N)CC(=O)O; β3hL = CC(C)C[C@H](N)CC(=O)O; Nle = CCCC[C@H](N)C(=O)O

Molecular target: T1, VEGF (Homo sapiens, UniProt P15692)
T1 sequence (P15692 1-191 isoform P15692-4): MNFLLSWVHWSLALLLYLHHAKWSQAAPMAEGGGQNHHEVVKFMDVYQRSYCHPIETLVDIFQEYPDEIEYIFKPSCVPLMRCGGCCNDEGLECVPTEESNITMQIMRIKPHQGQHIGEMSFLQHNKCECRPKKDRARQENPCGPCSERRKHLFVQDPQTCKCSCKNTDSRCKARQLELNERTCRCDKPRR
Assay: direct FP binding of N-terminal fluorescein derivatives
Details: domain 2 of VEGFR1 as competitor

Structure (SMILES): CCCC[C@@H]1NC(=O)[C@H](C(C)C)NC(=O)[C@H](Cc2c[nH]cn2)NC(=O)[C@H]([C@@H](C)CC)NC(=O)[C@H](CC(=O)O)NC(=O)[C@@H](NC(=O)C[C@H](CC(N)=O)NC(=O)[C@@H]2CCCN2C(=O)C[C@H](CCC(=O)O)NC(=O)[C@@H](NC(=O)c2ccc3c(c2)C(=O)OC32c3ccc(O)cc3Oc3cc(O)ccc32)C(C)C)CSSC[C@@H](C(=O)N[C@@H](Cc2ccccc2)C(=O)N[C@H]2CNC[C@@H]2C(=O)N[C@@H](CCCNC(=N)N)C(=O)N[C@H](CC(N)=O)CC(C)C)NC(=O)[C@H](CCC(=O)O)NC(=O)[C@H](Cc2c[nH]c3ccccc23)NC(=O)C[C@H](CCC(=O)O)NC(=O)[C@H](Cc2c[nH]c3ccccc23)NC1=O [Flu-3] (5FAM-V[β3hE]P[β3hN]CDIHV[Nle]W[β3hE]WECF[X1]R[β3hL]-NH2; disulfide 5-15; N-terminus and C-terminus assumed)
- displacement from VEGF by domain 2 of VEGFR1: displaces
